Results on 2 molecules are retold here after PMC11994314, “Binding mode between peptidyl-tRNA hydrolase and the peptidyl-A76 moiety of the substrate” (The Journal of Biological Chemistry, 2025).

The target in data set [1] is T1, TtPth (Thermus thermophilus peptidyl-tRNA hydrolase) (Thermus thermophilus, UniProt Q5SHZ2).
T1 construct: gene pth; wild type, full length (183 residues inferred from deletion of C-terminal 16 leaving Gly167 as last residue); monomer; wild type for crystals expressed and purified as described previously
Briefly: X-ray crystal structure (co-crystallisation), […] Å. The conditions noted are these: 40 mM AMP in reservoir, MES pH 5.8, 20 °C; active site cleft, acidic pocket, A76 mimic. In kind it is binding.

Data set [2] deals with the molecule itself. Briefly: crystal structure; crystals of ΔC16 TtPth (13 mg/ml, with 20 mM 3′-(N-acetyl-L-alanyl)amino-3′-deoxyadenosine, which was not seen in the density); 0.5 M (NH4)2SO4, 0.1 M Tris-HCl pH 7.5, 30% PEG600, 10% glycerol, 20 °C; contact between crystallographically related molecules, 2.10 Å.

T1 sequence (Q5SHZ2 whole entry): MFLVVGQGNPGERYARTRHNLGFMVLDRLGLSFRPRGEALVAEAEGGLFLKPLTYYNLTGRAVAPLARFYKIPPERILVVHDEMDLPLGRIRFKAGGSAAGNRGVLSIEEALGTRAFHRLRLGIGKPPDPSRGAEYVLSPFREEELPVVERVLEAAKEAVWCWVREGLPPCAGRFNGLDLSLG

As for `Nc1ncnc2c1ncn2[C@@H]1O[C@H](COP(=O)(O)O)[C@@H](O)[C@H]1O` [adenosine 5′-monophosphate], the “X-ray crystal structure (co-crystallisation), 1.60 Å” value in data set [1] is given as “The structure of TtPth⋅AMP revealed that AMP is bound to an acidic pocket”.

B1: C-terminal 16-amino acid deletion mutant of Thermus thermophilus HB8 peptidyl-tRNA hydrolase (ΔC16 TtPth) (domain or fragment, UniProt Q5SHZ2 1-167, looked up)
chain: MFLVVGQGNPGERYARTRHNLGFMVLDRLGLSFRPRGEALVAEAEGGLFLKPLTYYNLTGRAVAPLARFYKIPPERILVVHDEMDLPLGRIRFKAGGSAAGNRGVLSIEEALGTRAFHRLRLGIGKPPDPSRGAEYVLSPFREEELPVVERVLEAAKEAVWCWVREG
notes: Peptidyl-tRNA hydrolase (Pth, Pth1 type) of Thermus thermophilus HB8, lacking the C-terminal 16 amino acid residues (the C-terminal α-helix); the construct ends with Arg165-Glu166-Gly167; The His-tag was removed with thrombin; also called TtPth⋅tripeptide; C-terminal α-helix (C-terminal 16 amino acid residues) deletion mutant; source: E. coli BL21(DE3), purified (Ni-chelating column, thrombin …)
On to B1, for which the binding result in data set [2] is on record as “binds”.
